This is an account of results in PMC10856564, “Metabolites from Streptomyces aureus (VTCC43181) and Their Inhibition of Mycobacterium tuberculosis ClpC1 Protein” (Molecules, 2024).

“Also recorded” adds a separate entry of the source.

For experiment [1], the system named is ClpC1. Particulars: cited from earlier work; for ClpC1 inhibition: no reference at the place.
The subject of the next experiment is ClpC1/CplP1/ClpP2. As to conditions: via change in configuration of ClpC1; cited from earlier work.
Experiment [2] deals with ClpC1. As to conditions: cited from earlier work.
The subject of experiment [3] is recombinant ClpC1 protein. It is filed as biochemical. As to conditions: compounds at 0.1 µM, 1.0 µM, and 10.0 µM, released phosphate, BIOMOL Green, absorbance at 620 nm; for Affection of ATPase activity of ClpC1: controls ecumicin and rufomycin, values only in Figure 5.
For experiment [4] the following is noted: cited from earlier work. The protocol:
(§1) Compound 2 (3 mg) was yielded after column chromatography on normal-phase silica gel and the Sephadex LH20 column. Compound 2 (3 mg) was obtained as a white powder. […] The NMR data of compound 2 indicated a lactone ring structure consisting ...

The next experiment concerns HCV NS3 protease. As to conditions: cited from earlier work. The protocol:
as §1

In another experiment the test system is leukocyte. As to conditions: cited from earlier work. The protocol:
as §1

Experiment [5] relates to Gr (+) and Gr (-) microbacteria. Particulars: in vitro; against Gr (+) and Gr (-) microbacteria; cited from earlier work. From the text:
Streptomyces aureus is a species of actinomycete belonging to the genus Streptomyces. Its spores are spherical or oval in shape, and the average diameter is about 0.9 μ in width and 1.2 μ in length. […] The morphological characteristics of the S. aureus depend on different nutritional environments. A previous study reported that many active secondary metabolites were produced by this actinomycete strain. Alkaloid azirinomycin and 3-methyl-2H-azirine-2-carboxylic acid isolated fr ...

The conditions of experiment [6]: cited from earlier work. As to the method:
Compound 3 (12 mg) was obtained as a white solid. This compound was afforded after two reverse-phase column chromatography. […] In the ^1H NMR spectrum, ten signals of protons appeared at δH 3.57–3.54 (2H, m, α-H of Leu^1 & Leu^2), 3.50 (1H, d, J = 3.5, α-H of Ile), 3.43 (3H, d, J = 4.5, α-H of Ala^1, Ala^2, and Ala^3), 1.97–1.95 (1H, m, β-H of Ile), 1.83–1.77 (2H, m, γ-H of Leu^1, and Leu^2), 1.83–1.59 (4H, m, β-H of Leu^1, and Leu^ ...
This is another data set of the same source.

For a further experiment, the system named is tuberculosis bacteria. Particulars: through targeting the regulatory protein ClpC1; cited from earlier work.
The conditions of experiment [7]: cited from earlier work. As to the method:
Compound 1 (7 mg) was afforded after purification using Sephadex and silica gel column chromatography, followed by thin-layer chromatography. This compound was obtained as a colorless powder.
This is another data set of the same source.

With cyclomarin, the “effect on ATPase activity of ClpC1” value in the experiment with ClpC1 [1] was “shown to affect the ATPase activity of ClpC1”.
With ecumicin, the effect on proteolysis result in the experiment with ClpC1/CplP1/ClpP2 is recorded as “affecting proteolysis of ClpC1/CplP1/ClpP2”. Also, in the experiment on ClpC1 [1], the “effect on ATPase activity of ClpC1” value is reported as “shown to affect the ATPase activity of ClpC1” and the ClpC1 inhibition entry is “inhibited ClpC1”. Further, the “binding site on ClpC1” value with ClpC1 [2] was “binded to the allosteric site of ClpC1, causing a change in configuration”.
rufomycin: in the experiment with ClpC1 [1], the “effect on ATPase activity of ClpC1” value is on record as “shown to affect the ATPase activity of ClpC1” and the ClpC1 inhibition result is reported as “inhibited ClpC1”.
As a reminder, the IC50 is the point on the concentration scale where inhibition reaches its midpoint. On to `O=c1ccoc(=O)o1` [compound 2, 4H-1,3-dioxine-2,4-dione], for which, in experiment [3], the “Affection of ATPase activity of ClpC1” value is given as “did not affect the ATPase activity of ClpC1”. For the same compound, the antioxidant activity result in experiment [4] is “possesses antioxidant activity”. For the same compound, in the experiment on HCV NS3 protease, the IC50 was 78.9 µM. Also, the leukocyte inhibitory effects result in the experiment with leukocyte is “leukocyte inhibitory effects”.
With `CC1=NC1C(=O)O` (centres unmarked) [azirinomycin], in experiment [5], the antibiotic activity result is recorded as “exhibited broad-spectrum antibiotic activity in vitro”.
halolitoralin A [compound 3]: the “ATP hydrolysis effect of ClpC1 compared with ecumicin” value in experiment [3] (comparison with standard compound ecumicin) is listed as “similarly to ecumicin, but with lower ATP hydrolysis affection; also recorded: affected the ATPase activity of ClpC1 in a similar way to the standard compound ecumicin; also recorded: showed the effect on the ATPase hydrolysis activity of ClpC1, acting similar way to the antibiotic eucumicin”. Besides, in experiment [3], the “Affection of ATPase activity of ClpC1” value is “effective for the ATPase hydrolysis of the ClpC1 protein”. In addition, in [6], the anthelmintic activity result was “anthelmintic activity” and the antimicrobial activity result is given as “potent antimicrobial activity”. Also, the antitumor activities entry in [6] (in vitro) is recorded as “antitumor activities in vitro”.
lassomycin: in the experiment on ClpC1 [1], the “effect on ATPase activity of ClpC1” value is given as “shown to affect the ATPase activity of ClpC1” and the ClpC1 inhibition entry is given as “inhibited ClpC1”.
On to Cyclomarin A, for which the anti-tuberculosis activity entry in the experiment with tuberculosis bacteria was “anti-tuberculosis activity through the mechanism of targeting the regulatory protein ClpC1 of tuberculosis bacteria”.
Regarding `O=C1CCC(=O)N(O)CCCCCNC(=O)CCC(=O)N(O)CCCCCNC(=O)CCC(=O)N(O)CCCCCN1` [compound 1, nocardamin], in [3], the “Affection of ATPase activity of ClpC1” value was “did not affect the ATPase activity of ClpC1”. In experiment [7], the antimalarial activity entry is given as “antimalarial activity” and the siderophore activity result is “showed siderophore activity”.
